In brackets after ≈: the same amount, converted by molar mass.
Legend:
[1] = test system: transplanted tumor of human bladder cancer cell T-24; experiment: T-24 transplanted tumor in nude mice; conditions: for Tumor Volume (mm3) (d30): d 30
Experimental: Then cell concentration was adjusted to 1×10^7/ml with matrigel, then each nude mouse was inoculated subcutaneously with 0.2 ml of cells at its right armpit and recorded as the first day of inoculation. When the tumor grows to be greater than or equal to 100 mm^3, the mice were randomly divided into 11 groups with 6 mice in each group: isovaleryl spiramycin I groups with doses of 25, 50 and 100 mg/kg, isovaleryl spiramycin II groups with doses of 25, 50 and 100 mg/kg, and isovaleryl spiramycin III groups with doses of 25, 50 and 100 mg/kg. Each group was continuously administered intragastrically for 30 days with a dose of 20 ml/kg. The mice were sacrificed the next day after drug withdrawal and the indicators were tested. The long diameter and short diameter of the tumor, and the body weight of each mouse were recorded every 3 days from drug administration to nude mouse sacrifice.
The body weight of the nude mice and the long diameter (a) and short diameter (b) of the transplanted tumor were measured every 3 days, and the tumor volume (v), relative tumor volume (RTV) and relative tumor proliferation rate (T/C) are calculated respectively according to the following formulas, wherein V=a×b^2/2; RTV=V/V0 (V0 is the tumor volume before administration, V is the tumor volume before sacrifice), and T/C (%)=treatment group RTV/model control group RTV×100%.
Each mouse was weighed and sacrificed. After the tumor was completely stripped off from the body of the mouse, the non-tumor tissues such as blood stains and fat were removed to weigh the tumor and calculate the tumor growth inhibition rate. The average tumor weight of each group of mice is used as an indicator of efficacy. Tumor growth inhibition rate (%)=(1−the average tumor weight of the treatment group/the average tumor weight of the model group)×100%.

[2] = test system: transplanted tumor of mouse H22 liver cancer; experiment: Transplanted tumor of mouse H22 liver cancer; conditions: for Tumor Volume (mm3) (d30): d 30; for Body Weight (g) (d1) / Body Weight (g) (d 7): mouse, in vivo
Experimental: The H22 cell strains cryopreserved in liquid nitrogen were resuscitated in Kunming mice. After 3 generations, the ascites of Kunming mice were taken and placed in a 50 ml centrifuge tube in which 10 ml of 0.9% normal saline was added, and then centrifuging was performed at 1000 rpm for 5 min at room temperature, and the obtained supernatant was removed. Then 10 ml of 0.9% normal saline was added to the tube to blow and mix well, and then the mixture was diluted to 5×10^6 live cells/ml with normal saline after counting. The tube was stored in ice water, and 75% ethanol was used to disinfect the skin under the right armpits of the mice. Each Kunming mouse was soon inoculated subcutaneously with 0.2 ml of the cells at the armpit of the right forelimb.
In the H22 liver cancer model, the mice inoculated with the tumor were randomly divided into groups with 10 mice in each group on the next day of inoculation. The groups included: a model control group, a positive drug cyclophosphamide control group (CTX, 26 mg/kg), isovaleryl spiramycin I groups with doses of 13, 26 and 52 mg/kg; isovaleryl spiramycin II groups with doses of 13, 26 and 52 mg/kg; isovaleryl spiramycin III groups with doses of 13, 26 and 52 mg/kg. Each group was continuously administered intragastrically for 7 days with a dose of 20 ml/kg.
The tumor-bearing mice were weighed and sacrificed the next day after the last administration. The subcutaneous tumors were dissected and weighed. The average tumor weight of each group is calculated, and the tumor inhibition rate is calculated.
Tumor inhibition rate=(1−T/C)×100%
T: average tumor weight of the drug-administered group; C: average tumor weight of the blank control group.

[3] = test system: human promyelocytic leukemia cell HL-60; conditions: HL-60, MTT, 48 h
Experimental: (§1) The purpose of the assay is to evaluate the in vitro cell proliferation inhibition or cytotoxic activity of a tested sample.
(§2) U937 and HL-60 were suspension cells, and cells in a logarithmic growth phase were selected and prepared into a 2×10^5/ml cell suspension by a RPMI 1640 culture medium containing 10% fetal bovine serum. And the cell suspension was inoculated in a 96-well culture plate, and each well was 50 μL and the 96-well culture plate was cultured at 37° C. and 5% CO2 for 24 hours. 50 μL of a culture medium containing different concentrations of the tested sample isovaleryl spiramycin I, isovaleryl spiramycin II, or isovaleryl spiramycin III was added in the experimental group, while a culture medium containing the same volume of solvent was added into the control group. Each group was set up with 3 parallel wells that were cultured at 37° C. and 5% CO2 for 48 h. And 10 μL of freshly prepared medium containing 5 mg/ml MTT was added into each well for continuous incubation for 4 hours at 37° C. The crystals were dissolved in 100 μL of a triple solution (SDS 10 g, 10 M HCl 0.1 mL, isobutanol 5 mL, diluted with distilled water to 100 mL), and incubated at 37° C. for 12 hours. The optical density value was measured at 492 nm with a microplate reader.
(§3) The inhibition rate of the medicament on tumor cell growth is calculated according to the following formula:
(§4) Tumor cell growth inhibition rate (%)=[A492 (negative control)−A492 (dosing group)]/A492 (negative control)×100%
(§5) And the half-inhibitory concentration (IC50) of the sample is determined therefrom.

[4] = test system: human tissue lymphoma cell U937; conditions: U937, MTT, 48 h
Experimental: as §1, §2, §3, §4, §5

[5] = T-24, high dose (100 mg/kg in method) i.g. 30 days
[6] = T-24, low dose (25 mg/kg in method) i.g. 30 days
[7] = T-24, medium dose (50 mg/kg in method) i.g. 30 days

In the case of `CCC(=O)O[C@@H]1CC(=O)O[C@H](C)C/C=C/C=C/[C@H](O[C@H]2CC[C@H](N(C)C)[C@@H](C)O2)[C@H](C)C[C@H](CC=O)[C@H](O[C@@H]2O[C@H](C)[C@@H](O[C@H]3C[C@@](C)(O)[C@@H](OC(=O)CC(C)C)[C@H](C)O3)[C@H](N(C)C)[C@H]2O)[C@H]1OC` [Isovaleryl spiramycin III, isovaleryl spiramycin III], the “Relative Tumor Proliferation Rate (T/C)” value [1, 5] is reported as 39.39%, the “tumor growth inhibition rate” value [1, 5] is reported as 61.30% and the “Relative Tumor Proliferation Rate (T/C)” value [1, 6] is reported as 80.34%. The “tumor growth inhibition rate” value [1, 6] was 21.00%, the “tumor volume and relative tumor volume compared with the model group” value ([1]; T-24, low, medium and high doses, P<0.05) was “significantly lower” and the “Relative Tumor Proliferation Rate (T/C)” value [1, 7] was 62.35%. For the same compound, the “tumor growth inhibition rate” value [1, 7] was 44.84%, the “Inhibition Rate (%)” value ([1]; dose 25 mg/kg) was 21.00% and the “Relative Tumor Proliferation Rate (T/C)” value ([1]; dose 25 mg/kg) was 80.34%. The “Relative Tumor Volume (RTV)” value ([1]; dose 25 mg/kg) was 10.61 ± 2.24, the “Tumor Weight” value ([1]; dose 25 mg/kg) was 1.48 ± 0.43 g and the “Tumor Volume (mm3) (d 1)” value ([1]; dose 25 mg/kg) was 135.55 ± 18.08 mm3. For the same compound, the “Tumor Volume (mm3) (d30)” value ([1]; dose 25 mg/kg) was 1427.95 ± 311.97 mm3, the “Inhibition Rate (%)” value ([1]; dose 50 mg/kg) was 44.84% and the “Relative Tumor Proliferation Rate (T/C)” value ([1]; dose 50 mg/kg) was 62.35%. For the same compound, the “Relative Tumor Volume (RTV)” value ([1]; dose 50 mg/kg) was 8.24 ± 0.38, the “Tumor Weight” value ([1]; dose 50 mg/kg) was 1.03 ± 0.42 g and the “Tumor Volume (mm3) (d 1)” value ([1]; dose 50 mg/kg) was 136.32 ± 15.54 mm3. The “Tumor Volume (mm3) (d30)” value ([1]; dose 50 mg/kg) was 1123.28 ± 140.84 mm3, the “Inhibition Rate (%)” value ([1]; dose 100 mg/kg) was 61.30% and the “Relative Tumor Proliferation Rate (T/C)” value ([1]; dose 100 mg/kg) was 39.39%. For the same compound, the “Relative Tumor Volume (RTV)” value ([1]; dose 100 mg/kg) was 5.20 ± 0.71, the “Tumor Weight” value ([1]; dose 100 mg/kg) was 0.73 ± 0.20 g and the “Tumor Volume (mm3) (d 1)” value ([1]; dose 100 mg/kg) was 134.53 ± 20.46 mm3. For the same compound, the “Tumor Volume (mm3) (d30)” value ([1]; dose 100 mg/kg) was 697.48 ± 130.89 mm3, the “mouse weight compared with the model group” value ([1]; mouse, in vivo) was “no significant changes” and the “Body Weight (g) (d1)” value ([1]; mouse, in vivo, 25 mg/kg) was 19.57 ± 0.52 g. For the same compound, the “Body Weight (g) (d30)” value ([1]; mouse, in vivo, 25 mg/kg) was 25.72 ± 1.53 g, the “Body Weight (g) (d1)” value ([1]; mouse, in vivo, 50 mg/kg) was 19.61 ± 0.44 g and the “Body Weight (g) (d30)” value ([1]; mouse, in vivo, 50 mg/kg) was 26.47 ± 0.52 g. The “Body Weight (g) (d1)” value ([1]; mouse, in vivo, 100 mg/kg) was 19.90 ± 0.58 g, the “Body Weight (g) (d30)” value ([1]; mouse, in vivo, 100 mg/kg) was 25.05 ± 0.93 g and the “growth of H22 liver cancer in mice” value ([2]; 13, 26 and 52 mg/kg i.g. 7 days) was “significantly inhibit”. The “Relative Tumor Proliferation Rate (T/C)” value ([2]; dose 12.5 mg/kg) was 69.68, the “Relative Tumor Volume (RTV)” value ([2]; dose 12.5 mg/kg) was 6.92 ± 1.88 and the “Tumor Volume (mm3) (d 1)” value ([2]; dose 12.5 mg/kg) was 121.58 ± 13.44 mm3. The “Tumor Volume (mm3) (d30)” value ([2]; dose 12.5 mg/kg) was 824.36 ± 143.90 mm3, the “Inhibition Rate (%)” value ([2]; dose 13 mg/kg) was 33.55% and the “Tumor” value ([2]; dose 13 mg/kg) was 1.01 ± 0.22 g. The “Relative Tumor Proliferation Rate (T/C)” value ([2]; dose 25 mg/kg) was 56.90, the “Relative Tumor Volume (RTV)” value ([2]; dose 25 mg/kg) was 5.65 ± 1.74 and the “Tumor Volume (mm3) (d 1)” value ([2]; dose 25 mg/kg) was 118.16 ± 21.72 mm3. The “Tumor Volume (mm3) (d30)” value ([2]; dose 25 mg/kg) was 650.32 ± 171.23 mm3, the “Inhibition Rate (%)” value ([2]; dose 26 mg/kg) was 44.08% and the “Tumor” value ([2]; dose 26 mg/kg) was 0.85 ± 0.34 g. For the same compound, the “Relative Tumor Proliferation Rate (T/C)” value ([2]; dose 50 mg/kg) was 43.45, the “Relative Tumor Volume (RTV)” value ([2]; dose 50 mg/kg) was 4.31 ± 1.65 and the “Tumor Volume (mm3) (d 1)” value ([2]; dose 50 mg/kg) was 122.15 ± 49.44 mm3. For the same compound, the “Tumor Volume (mm3) (d30)” value ([2]; dose 50 mg/kg) was 468.19 ± 110.04 mm3, the “Inhibition Rate (%)” value ([2]; dose 52 mg/kg) was 51.97% and the “Tumor” value ([2]; dose 52 mg/kg) was 0.73 ± 0.45 g. For the same compound, the “Body Weight (g) (d1)” value ([2]; 13 mg/kg) was 23.67 ± 3.73 g, the “Body Weight (g) (d 7)” value ([2]; 13 mg/kg) was 26.33 ± 1.43 g and the “Body Weight (g) (d1)” value ([2]; 26 mg/kg) was 24.13 ± 1.46 g. The “Body Weight (g) (d 7)” value ([2]; 26 mg/kg) was 27.47 ± 1.21 g, the “Body Weight (g) (d1)” value ([2]; 52 mg/kg) was 24.32 ± 1.12 g and the “Body Weight (g) (d 7)” value ([2]; 52 mg/kg) was 27.35 ± 0.80 g. For the same compound, the IC50 [3] was 21.38 ± 1.75 mg/L (≈ 21.7 µM) and the IC50 [4] was 15.59 ± 0.08 mg/L (≈ 15.9 µM).
